Reference: DBAASP
≈ marks a conversion by molar mass, not a printed value. Values belong to the compound of their own block, whether it stands above or below them.

Assays:
Experiment in all cases: ≥ marks a high value that may be exact or a test limit, other limits are often not marked, values filed in µg/mL are converted to µM
[1] = tested on: Mycobacterium tuberculosis H37Rv
[2] = tested on: Mycobacterium tuberculosis WXY
[3] = tested on: Mycobacterium tuberculosis CAS3
[4] = tested on: Escherichia coli CIP 54.8T
[5] = tested on: Bacillus subtilis VKM B-501
[6] = tested on: Staphylococcus aureus 209P
Escherichia coli C600 = tested on: Escherichia coli C600
[7] = tested on: Pseudomonas aeruginosa ATCC 27853
[8] = tested on: Escherichia coli ATCC 25922
[9] = tested on: Listeria monocytogenes EGD
[10] = tested on: Staphylococcus aureus ATCC 25923
[11] = tested on: Legionella pneumophila Lens
Pseudomonas aeruginosa = tested on: Pseudomonas aeruginosa
Enterococcus faecalis = tested on: Enterococcus faecalis
[12] = tested on: Staphylococcus aureus ATCC 43300
[13] = tested on: Staphylococcus aureus ATCC 29213
[14] = tested on: Escherichia coli ATCC BAA-2523
Enterococcus faecalis VR = tested on: Enterococcus faecalis VR
[15] = tested on: Escherichia coli KCTC 1682
[16] = tested on: Staphylococcus aureus KCCM 40510
[17] = tested on: Enterococcus faecalis ATCC 51575
[18] = tested on: Enterococcus faecalis KCCM 11814
[19] = tested on: Salmonella typhimurium KCTC 1926
[20] = tested on: Pseudomonas aeruginosa KCTC 1637
[21] = tested on: Acinetobacter baumannii KCCM 1053
[22] = tested on: Staphylococcus aureus KCTC 1621
[23] = tested on: Pseudomonas aeruginosa CCARM 2180
[24] = tested on: Staphylococcus epidermidis KCTC 1917
[25] = tested on: Acinetobacter baumannii ATCC BAA-1605
[26] = tested on: Bacillus subtilis KCTC 3068
[27] = tested on: Staphylococcus epidermidis
Enterococcus sp. = tested on: Enterococcus sp.
Acinetobacter baumannii = tested on: Acinetobacter baumannii
Klebsiella pneumoniae = tested on: Klebsiella pneumoniae
Escherichia coli ESBL = tested on: Escherichia coli ESBL
Staphylococcus aureus = tested on: Staphylococcus aureus

MIC [1]: ≥ 139 µM | MIC [2]: ≥ 139 µM | MIC [3]: ≥ 139 µM
Structure (SMILES): CC(C)C[C@H](NC(=O)[C@H](CC(C)C)NC(=O)[C@H](CCCCN)NC(=O)[C@H](CCCCN)NC(=O)[C@@H](NC(=O)[C@H](C)N)C(C)C)C(=O)N[C@@H](C)C(=O)N[C@@H](C)C(=O)N[C@@H](C)C(=O)N[C@@H](CO)C(=O)N[C@@H](C)C(=O)N[C@@H](C)C(=O)N[C@@H](C)C(=O)N[C@@H](CCCCN)C(=O)N[C@@H](CCCCN)C(=O)O [AVKKLLAAASAAAKK]

MIC [4]: ≥ 150 µM
Structure (SMILES): CC[C@H](C)[C@H](NC(=O)[C@H](Cc1cnc[nH]1)NC(=O)[C@H](Cc1cnc[nH]1)NC(=O)[C@H](Cc1ccccc1)NC(=O)[C@@H](NC(=O)[C@H](CCCCN)NC(=O)[C@@H](NC(=O)[C@@H](N)Cc1ccccc1)[C@@H](C)CC)[C@@H](C)CC)C(=O)N[C@@H](Cc1ccccc1)C(=O)N[C@@H](CCCCN)C(=O)NCC(=O)N[C@@H](CC(N)=O)C(=O)N1CCC[C@H]1C(=O)N[C@@H](CCCCN)C(=O)N[C@@H](Cc1ccccc1)C(=O)N[C@@H](CO)C(=O)N[C@H](C(=O)N[C@H](C(=O)N[C@@H](CCCCN)C(=O)O)[C@@H](C)CC)[C@@H](C)CC [FIKIFHHIFKGNPKFSIIK]

MIC [5]: 0.7 µM (≈ 2.16 µg/mL) | MIC [6]: 3 µM (≈ 9.24 µg/mL) | MIC (Escherichia coli C600): 1.5 µM (≈ 4.62 µg/mL)
Structure (SMILES): CSCC[C@H](NC(=O)[C@H](CCCCN)NC(=O)CN)C(=O)N[C@@H](CCCCN)C(=O)N[C@@H](CCC(=O)O)C(=O)N[C@@H](Cc1ccc(O)cc1)C(=O)N[C@@H](Cc1ccccc1)C(=O)N[C@@H](CCCCN)C(=O)N[C@@H](CCCCN)C(=O)N[C@@H](Cc1ccccc1)C(=O)NCC(=O)N[C@@H](C)C(=O)N[C@@H](CO)C(=O)N[C@@H](Cc1ccccc1)C(=O)N[C@@H](CCCCN)C(=O)N[C@@H](CCCN=C(N)N)C(=O)N[C@@H](CCCN=C(N)N)C(=O)N[C@@H](Cc1ccccc1)C(=O)N[C@@H](C)C(=O)N[C@@H](CC(N)=O)C(=O)N[C@@H](CC(C)C)C(=O)N[C@@H](CCCCN)C(=O)N[C@@H](CCCCN)C(=O)N[C@@H](CCCN=C(N)N)C(=O)N[C@@H](CC(C)C)C(N)=O [GKMKEYFKKFGASFKRRFANLKKRL]

MIC [7]: 64 µM (≈ 144 µg/mL) | MIC [8]: 32 µM (≈ 71.8 µg/mL) | MIC [9]: ≥ 32 µM | MIC [10]: 64 µM (≈ 144 µg/mL)
Structure (SMILES): CC[C@H](C)[C@H](NC(=O)[C@H](C)NC(=O)CNC(=O)[C@H](CCCCN)NC(=O)[C@@H](NC(=O)[C@H](CC(C)C)NC(=O)[C@H](C)NC(=O)[C@H](CC(C)C)NC(=O)[C@@H](NC(=O)[C@@H](NC(=O)[C@H](Cc1ccc(O)cc1)NC(=O)[C@@H](NC(=O)[C@H](Cc1ccccc1)NC(=O)[C@H](CCCCN)NC(=O)[C@H](CCCCN)NC(=O)[C@@H](N)CCCCN)[C@@H](C)CC)[C@@H](C)CC)C(C)C)[C@@H](C)CC)C(=O)N[C@H](C(=O)N[C@@H](CCCCN)C(=O)N[C@@H](CCCCN)C(=O)NCC(N)=O)[C@@H](C)CC [KKKFIYIVLALIKGAIIKKG]

MIC [11]: 0.62 µM (≈ 1.57 µg/mL)
Structure (SMILES): CC[C@H](C)[C@H](NC(=O)[C@H](CC(C)C)NC(=O)[C@H](CCCCN)NC(=O)[C@H](CCCCN)NC(=O)[C@@H](NC(=O)[C@@H](NC(=O)[C@H](CCC(=O)O)NC(=O)[C@@H](NC(=O)[C@@H](NC(=O)[C@H](CCCCN)NC(=O)[C@H](C)NC(=O)[C@@H](NC(=O)[C@@H](NC(=O)[C@H](CC(=O)O)NC(=O)[C@H](C)NC(=O)[C@@H](N)CCSC)C(C)C)[C@@H](C)CC)[C@@H](C)CC)C(C)C)[C@@H](C)CC)C(C)C)C(=O)N[C@@H](CC(=O)O)C(=O)N[C@@H](CCC(N)=O)C(=O)N[C@@H](Cc1ccccc1)C(=O)N[C@H](C(=O)N[C@@H](CCC(N)=O)C(=O)N[C@@H](CCCCN)C(=O)O)[C@@H](C)O [MADVIAKIVEIVKKLIDQFTQK]

MIC [7]: > 128 µM | MIC (Pseudomonas aeruginosa): > 128 µM | MIC (Enterococcus faecalis): ≥ 128 µM | MIC [8]: > 128 µM | MIC [12]: 128 µM (≈ 301 µg/mL) | MIC [13]: 128 µM (≈ 301 µg/mL) | MIC [14]: ≥ 128 µM | MIC (Enterococcus faecalis VR): ≥ 128 µM
Structure (SMILES): CC(C)C[C@H](NC(=O)[C@@H](N)CCC(N)=O)C(=O)NCC(=O)N[C@@H](CCCCN)C(=O)N[C@@H](CCCCN)C(=O)N[C@@H](CCCCN)C(=O)N[C@@H](Cc1cnc[nH]1)C(=O)N[C@@H](CCCN=C(N)N)C(=O)N[C@@H](CCCN=C(N)N)C(=O)N[C@@H](CCCN=C(N)N)C(=O)N1CCC[C@H]1C(=O)N[C@@H](CO)C(=O)N[C@@H](CCCCN)C(=O)N[C@@H](CCCCN)C(=O)N[C@@H](CCCCN)C(=O)N[C@@H](CCCN=C(N)N)C(=O)N[C@@H](Cc1cnc[nH]1)C(=O)N[C@@H](Cc1c[nH]c2ccccc12)C(=O)O [QLGKKKHRRRPSKKKRHW]

MIC [15]: 2.83 µM (≈ 4.94 µg/mL) | MIC [16]: 22.6 µM (≈ 39.5 µg/mL) | MIC [17]: 11.3 µM (≈ 19.7 µg/mL) | MIC [18]: ≥ 32 µM | MIC [19]: 8 µM (≈ 14 µg/mL) | MIC [20]: 4 µM (≈ 6.98 µg/mL) | MIC [21]: 22.6 µM (≈ 39.5 µg/mL) | MIC [22]: 16 µM (≈ 27.9 µg/mL) | MIC [23]: ≥ 64 µM | MIC [24]: 8 µM (≈ 14 µg/mL) | MIC [25]: ≥ 64 µM | MIC [26]: ≥ 32 µM
Structure (SMILES): CC[C@H](C)[C@@H]1NC(=O)[C@H](CCCN=C(N)N)NC(=O)[C@@H](NC(=O)[C@H](CC(C)C)NC(=O)[C@@H](N)CCCN=C(N)N)CSSC[C@@H](C(=O)N[C@@H](CCCN=C(N)N)C(=O)O)NC(=O)[C@H](Cc2c[nH]c3ccccc23)NC(=O)[C@H](CCCN=C(N)N)NC(=O)[C@H]([C@@H](C)CC)NC(=O)[C@H](Cc2c[nH]c3ccccc23)NC(=O)[C@H](Cc2c[nH]c3ccccc23)NC1=O [RLCRIWWIRWCR]

MIC (Pseudomonas aeruginosa): 4.93 µM (≈ 12.5 µg/mL) | MIC [27]: 9.87 µM (≈ 25 µg/mL) | MIC (Enterococcus sp.): 9.87 µM (≈ 25 µg/mL) | MIC (Acinetobacter baumannii): 2.47 µM (≈ 6.25 µg/mL) | MIC (Klebsiella pneumoniae): 4.93 µM (≈ 12.5 µg/mL) | MIC (Escherichia coli ESBL): 2.47 µM (≈ 6.25 µg/mL) | MIC (Staphylococcus aureus): 9.87 µM (≈ 25 µg/mL)
Structure (SMILES): CC(C)C[C@H](NC(=O)CNC(=O)[C@H](CCCCN)NC(=O)[C@@H](NC(=O)[C@H](CCCCN)NC(=O)[C@H](CCCCN)NC(=O)[C@@H](NC(=O)[C@@H](NC(=O)[C@H](CCCCN)NC(=O)[C@@H](NC(=O)[C@H](CCCCN)NC(=O)CNC(=O)[C@H](CCCN=C(N)N)NC(=O)[C@H](Cc1ccc(O)cc1)NC(=O)[C@H](CC(C)C)NC(=O)[C@H](CCCCN)NC(=O)CNC(=O)[C@H](Cc1ccccc1)NC(=O)[C@@H](N)Cc1c[nH]c2ccccc12)[C@@H](C)O)C(C)C)C(C)C)C(C)C)C(=O)N[C@@H](CC(C)C)C(=O)N[C@@H](CCCCN)C(=O)NCC(=O)O [WFGKLYRGKTKVVKKVKGLLKG]
